{"source": "patent US7297712B2", "about": "“Cationic amphiphiles for intracellular delivery of therapeutic molecules and its composition, process and method of treatment” (Council of Scientific and Industrial Research, priority 2002, dated 2007)", "data": [{"tested_on": "COS-1 cells", "assay": "Cell transfection, β-galactosidase reporter gene activity", "type": "cell-based", "details": "pCMV β-gal plasmid 0.15 μg, lipid:DNA charge ratios 0.1:1 to 9:1, compared with DMRIE, FIG. 1", "method": "Similar examples of plasmid include PGL-2 and PGL-3 of Promega and others.\nCell Transfection. COS-1 cells were seeded at a density of 15,000 cells/well in a 96-well plate eighteen hours before the transfection. 0.15 μg of plasmid DNA was complexed with varying amount of lipid (0.05-4.3 nmoles) in 13 μl of plain DMEM medium for 30 min. The charge ratios were varied from 0.1:1 to 9:1 (+/−) over this range of the lipid. The complex was diluted to 100 μl with plain DMEM and added to the wells. After 3 h of incubation, 100 μl of DMEM with 10% FCS was added to the cells. The medium was changed to 10% complete medium after 24 h and the reporter gene activity was estimated after 48 h. The cells were washed twice with PBS and lysed in 50 μl of lysis buffer (0.25 M Tris.HCl, pH 8.0 and 0.5% NP40). Care was taken to ensure complete lysis. The β-galactosidase activity per well was estimated by adding 50 μl of 2× substrate solution (1.33 mg/ml of ONPG, 0.2 M sodium phosphate, pH 7.15 and 2 mM magnesium chloride) to the lysate in a 96-well plate. Absorption at 405 nm was converted to β-galactosidase units by using calibration curve constructed with pure commercial β-galactosidase enzyme. The values of β-galactosidase units in replicate plates assayed on the same day varied by less than 30%. […]", "values": [{"compound": "CCCCCCCCCCCCCC[N+]1(CCCCCCCCCCCCCC)CC(O)C(O)C1", "note": "(stereo not drawn) [lipid 2, N,N-di-n-tetradecyl-3,4-dihydroxy pyrrolidinium chloride]", "in vitro transfection efficiency": "comparable to or better than that of DMRIE"}]}, {"tested_on": "EtBr:pCMV β-gal complex (DNA)", "assay": "Lipid:DNA interactions assay (ethidium bromide exclusion fluorescence)", "type": "binding", "details": "titration of EtBr:DNA complex with lipid, TE buffer pH 8.0, FIG. 2", "description": "Lipid:DNA Interactions Assay. Intercalation-induced fluorescence increase and competition with cationic lipids to bind to DNA has made Ethidium Bromide (EtBr) an excellent tool to study cationic lipid-DNA interactions. To assess the representative lipid:DNA interactions for the cationic lipids of the present invention, we have titrated the EtBr:pCMV β-gal complex with increasing amounts of cationic lipids 1-5.\nThe extent of Et.Br binding to the DNA was monitored by the changes in the fluorescence. EtBr fluorescence was monitored in Hitachi 4500 fluorimeter by setting the excitation wavelength at 518 nm and emission wavelength at 585 nm. To one ml of TE buffer (pH 8.0), 0.78 nmoles of DNA and 2.5 nmoles of EtBr were added. The change in fluorescence was monitored after adding small volumes of lipids 1-5 to the EtBr:DNA complex. Arbitrary fluorescence values were recorded after allowing sufficient time for equilibration. […] Percent fluorescence was calculated considering the fluorescence value in the absence of lipid as 100.", "values": [{"compound": "CCCCCCCCCCCC[N+]1(CCCCCCCCCCCC)CC(O)C(O)C1", "note": "(stereo not drawn) [lipid 1, N,N-di-n-dodecyl-3,4-dihydroxy pyrrolidinium chloride]", "lipid:DNA interaction (ability to exclude ethidium bromide from DNA)": "interact poorly with DNA"}, {"compound": "CCCCCCCCCCCCCC[N+]1(CCCCCCCCCCCCCC)CC(O)C(O)C1", "note": "(stereo not drawn) [lipid 2, N,N-di-n-tetradecyl-3,4-dihydroxy pyrrolidinium chloride]", "lipid:DNA interaction (ability to exclude ethidium bromide from DNA)": "interact with DNA equally well up to lipid:DNA ratio of 1.25 or so"}, {"compound": "CCCCCCCCCCCCCCCC[N+]1(CCCCCCCCCCCCCCCC)CC(O)C(O)C1", "note": "(stereo not drawn) [lipid 3, N,N-di-n-hexadecyl-3,4-dihydroxy pyrrolidinium chloride]", "lipid:DNA interaction (ability to exclude ethidium bromide from DNA)": "interact with DNA equally well up to lipid:DNA ratio of 1.25 or so"}, {"compound": "CCCCCCCCCCCCCCCCCC[N+]1(CCCCCCCCCCCCCCCCCC)CC(O)C(O)C1", "note": "(stereo not drawn) [lipid 4, N,N-di-n-octadecyl-3,4-dihydroxy pyrrolidinium chloride]", "lipid:DNA interaction (ability to exclude ethidium bromide from DNA)": "interact poorly with DNA"}, {"compound": "CCCCCCCC/C=C\\CCCCCCCC[N+]1(CCCCCCCCCCCCCCCCCC)CC(O)C(O)C1", "note": "(stereo not drawn) [lipid 5, N-n-octadecyl-N-oleyl-3,4 dihydroxy pyrrolidinium chloride]", "lipid:DNA interaction (ability to exclude ethidium bromide from DNA)": "interact poorly with DNA"}]}]}
